Reference: patent US20250127754A1, “Pharmaceutical Application of Dimyricetin-yl-diselenide in Atherosclerosis” (Shanghai Spark Pharmaceutical Co., Ltd., priority 2023, published 2025)
“Also recorded” adds a separate entry of the source.

How the values were obtained:
Type in all cases: in vivo
ApoE−/− mice [1] = experiment: Body weight, high-fat diet atherosclerosis model; settings: HFD-fed ApoE−/− mice, compared with control group; FIG. 1
Protocol: (§1) Upon arrival, ApoE−/− mice were acclimatized to the experimental facility for 3 days. After an overnight fast (12 hours), blood samples were collected to measure baseline levels of serum lipids (TC, TG, HDL-C, LDL-C) and LDH. Control mice were fed a regular diet, while the remaining mice were fed a high-fat diet for 18 weeks. The regular diet contained 11% kcal fat and 0% cholesterol, while the high-fat diet contained 40% kcal fat and 0.21% cholesterol. At 8 weeks of high-fat feeding, the animals underwent echocardiography and blood biochemical tests. Based on their TC values, they were randomly assigned to the following groups: blank control, model control, positive control, AQ-C-a, DMS-ASD, and DMS (refer to Table 2 in Section 6.5). Drug administration continued for 10 weeks. During the experiment, the animals' appearance, behavior, and physical condition were observed, and their body weight, echocardiography, serum lipids (TC, TG, HDL-C, and LDL-C), and blood biochemistry (LDH, SOD, and MDA) were monitored. At the end of the experiment (Week 18), hearts and aortas were collected for Oil Red O staining and histopathological analysis.
All animals were given medicine […] once a day during the medication period;

ApoE−/− mice [2] = experiment: Plasma LDH content, high-fat diet atherosclerosis model; parameters: LDH: unit not given here
Text: Upon arrival, ApoE−/− mice were acclimatized to the experimental facility for 3 days. […] Control mice were fed a regular diet, while the remaining mice were fed a high-fat diet for 18 weeks. […] At 8 weeks of high-fat feeding, the animals underwent echocardiography and blood biochemical tests. […] Drug administration continued for 10 weeks. During the experiment, the animals' appearance, behavior, and physical condition were observed, and their body weight, echocardiography, serum lipids (TC, TG, HDL-C, and LDL-C), and blood biochemistry (LDH, SOD, and MDA) were monitored. At the end of the experiment (Week 18), hearts and aortas were collected for Oil Red O staining and histopathological analysis. Animals were fasted the night before blood collection. Blood samples were collected and anticoagulated with heparin to prepare plasma for the detection of TG, TC, HDL-C, LDL-c, and LDH.

ApoE−/− mice [3] = experiment: Aortic fat plaque examination (oil red O staining); settings: for Effect on percentage of aortic plaque (in words): end of 18th week, compared with the model group; for % Patch area (aortic plaque): week 18, oil red staining of aorta, 10 weeks QD: Atorvastatin 20 mg/kg P.O., AQ-C-a 300 mg/kg P.O., DMS-ASD 300 mg/kg P.O., DMS 20 mg/kg SC
Protocol: as §1
Aortic oil red O staining was performed. The experimental endpoint was set at Week 10 post-treatment. After euthanasia, the aorta was collected from the aortic arch to the iliac artery and subjected to oil red O staining to analyze the accumulation of fat plaques in the aorta.

ApoE−/− mice [4] = experiment: Heart weight and heart weight index (tibial length corrected); settings: 10 weeks QD: Atorvastatin 20 mg/kg P.O., AQ-C-a 300 mg/kg P.O., DMS-ASD 300 mg/kg P.O., DMS 20 mg/kg SC; for Heart: heart weight at end of experiment (week 18)
Protocol: At the experimental endpoint, hearts and tibias were collected. The heart was weighed and its weight index was calculated using tibial length for correction, with the formula: Heart Index=Heart Weight (g)/Tibial Length (cm)×100%. The heart was fixed in 4% PFA and subjected to HE staining to evaluate fat plaques in the outflow tract.

ApoE−/− mice [5] = experiment: Blood lipids (TG, TC, HDL-C, LDL-C) in plasma, high-fat diet atherosclerosis model; parameters: TG / TC / HDL-C / LDL-C: unit not given here; settings: for Effect on LDL-c (in words) / Effect on TC (in words): compared to the model group
Protocol: as §1
(§2) Animals were fasted the night before blood collection. Blood samples were collected and anticoagulated with heparin to prepare plasma for the detection of TG, TC, HDL-C, LDL-c, and LDH. Blood was collected at six time points: Week 0, Week 8, Week 10, Week 12, Week 16, and Week 18. SOD and MDA levels were measured at Week 16 and Week 18.

ApoE−/− mice [6] = experiment: Plasma SOD and MDA, high-fat diet atherosclerosis model; parameters: MDA: unit not given here; settings: QD: Atorvastatin 20 mg/kg P.O., AQ-C-a 300 mg/kg P.O., DMS-ASD 300 mg/kg P.O., DMS 20 mg/kg SC
Protocol: as §1, §2

[7] = week 0, baseline before HFD and dosing, fasted plasma, mean±standard error
[8] = week 8 of HFD, before start of dosing, fasted plasma
[9] = week 10 of HFD (2 weeks dosing), QD: Atorvastatin 20 mg/kg P.O., AQ-C-a 300 mg/kg P.O., DMS-ASD 300 mg/kg P.O., DMS 20 mg/kg SC
[10] = week 12 of HFD (4 weeks dosing), QD: Atorvastatin 20 mg/kg P.O., AQ-C-a 300 mg/kg P.O., DMS-ASD 300 mg/kg P.O., DMS 20 mg/kg SC
[11] = week 16 of HFD (8 weeks dosing), QD: Atorvastatin 20 mg/kg P.O., AQ-C-a 300 mg/kg P.O., DMS-ASD 300 mg/kg P.O., DMS 20 mg/kg SC
[12] = week 18 of HFD (10 weeks dosing), QD: Atorvastatin 20 mg/kg P.O., AQ-C-a 300 mg/kg P.O., DMS-ASD 300 mg/kg P.O., DMS 20 mg/kg SC

Dimyricetin-yl-diselenide [DMS]
Effect on body weight (in words) (ApoE−/− mice [1]): stabilized from the 10th to 11th week and overlapped with the control group's weight curve by the 14th week; also recorded: inhibiting the increase
Effect on plasma LDH (in words) (ApoE−/− mice [2]; 18th week, compared to the model group, P<0.05): significant reductions; also recorded: inhibiting the increase
LDH (ApoE−/− mice [2]; [7]): 1083.25 ± 375.4
LDH (ApoE−/− mice [2]; [8]): 1022.5 ± 112.95
LDH (ApoE−/− mice [2]; [9]): 401.5 ± 22.95
LDH (ApoE−/− mice [2]; [10]): 368.5 ± 26.82
LDH (ApoE−/− mice [2]; [11]): 361.88 ± 20.78
LDH (ApoE−/− mice [2]; [12]): 719 ± 81.08
Effect on percentage of aortic plaque (in words) (ApoE−/− mice [3]): statistically significant compared with the model group; also recorded: reducing the area
% Patch area (aortic plaque) (ApoE−/− mice [3]): 8.43 ± 0.95 %
Heart (ApoE−/− mice [4]): 0.169 ± 0.010 g
Cardiac weight index (ApoE−/− mice [4]; heart weight/tibial length, week 18): 0.095 ± 0.006 g/cm
Effect on LDL-c (in words) (ApoE−/− mice [5]): trend of reducing; also recorded: inhibiting the increase
Effect on TC (in words) (ApoE−/− mice [5]): trend of reducing; also recorded: inhibiting the increase
HDL-C (ApoE−/− mice [5]; [7]): 1.63 ± 0.12
LDL-C (ApoE−/− mice [5]; [7]): 6.07 ± 0.19
TC (ApoE−/− mice [5]; [7]): 11.84 ± 0.85
TG (ApoE−/− mice [5]; [7]): 1.99 ± 0.14
HDL-C (ApoE−/− mice [5]; [8]): 1.38 ± 0.15
LDL-C (ApoE−/− mice [5]; [8]): 22.09 ± 1.86
TC (ApoE−/− mice [5]; [8]): 28.69 ± 2.34
TG (ApoE−/− mice [5]; [8]): 1.26 ± 0.07
HDL-C (ApoE−/− mice [5]; [9]): 1.44 ± 0.07
LDL-C (ApoE−/− mice [5]; [9]): 23.38 ± 1.46
TC (ApoE−/− mice [5]; [9]): 30.95 ± 1.95
TG (ApoE−/− mice [5]; [9]): 2.14 ± 0.1
HDL-C (ApoE−/− mice [5]; [10]): 1.44 ± 0.07
LDL-C (ApoE−/− mice [5]; [10]): 23.38 ± 1.46
TC (ApoE−/− mice [5]; [10]): 32.35 ± 1.96
TG (ApoE−/− mice [5]; [10]): 2.29 ± 0.2
HDL-C (ApoE−/− mice [5]; [11]): 2.27 ± 0.15
LDL-C (ApoE−/− mice [5]; [11]): 21.1 ± 1.23
TC (ApoE−/− mice [5]; [11]): 27.78 ± 1.36
TG (ApoE−/− mice [5]; [11]): 2.71 ± 0.35
HDL-C (ApoE−/− mice [5]; [12]): 2.1 ± 0.19
LDL-C (ApoE−/− mice [5]; [12]): 15.94 ± 1.32
TC (ApoE−/− mice [5]; [12]): 20.92 ± 1.78
TG (ApoE−/− mice [5]; [12]): 1.27 ± 0.06
MDA (ApoE−/− mice [6]; week 16 (8 weeks dosing)): 7.19 ± 1.15
SOD (ApoE−/− mice [6]; week 16 (8 weeks dosing)): 1.06 ± 0.14 U/mL
MDA (ApoE−/− mice [6]; week 18 (10 weeks dosing)): 6.08 ± 0.50
SOD (ApoE−/− mice [6]; week 18 (10 weeks dosing)): 0.87 ± 0.03 U/mL

CC(C)c1c(C(=O)Nc2ccccc2)c(-c2ccccc2)c(-c2ccc(F)cc2)n1CC[C@@H](O)C[C@@H](O)CC(=O)O [Atorvastatin, reference compound]
Effect on body weight (in words) (ApoE−/− mice [1]): significantly greater than those in the control group
LDH (ApoE−/− mice [2]; [7]): 948.67 ± 117.19
LDH (ApoE−/− mice [2]; [8]): 1176.67 ± 142.27
LDH (ApoE−/− mice [2]; [9]): 620 ± 62.03
LDH (ApoE−/− mice [2]; [10]): 422.67 ± 50.59
LDH (ApoE−/− mice [2]; [11]): 384 ± 25.93
LDH (ApoE−/− mice [2]; [12]): 1384.67 ± 191.24
Effect on percentage of aortic plaque (in words) (ApoE−/− mice [3]): significantly reduced
% Patch area (aortic plaque) (ApoE−/− mice [3]): 6.86 ± 1.21 %
Heart (ApoE−/− mice [4]): 0.192 ± 0.009 g
Effect on LDL-c (in words) (ApoE−/− mice [5]): significantly reduced
Effect on TC (in words) (ApoE−/− mice [5]): significantly reduced
HDL-C (ApoE−/− mice [5]; [7]): 1.53 ± 0.15
LDL-C (ApoE−/− mice [5]; [7]): 5.63 ± 0.34
TC (ApoE−/− mice [5]; [7]): 10.12 ± 0.84
TG (ApoE−/− mice [5]; [7]): 1.79 ± 0.14
HDL-C (ApoE−/− mice [5]; [8]): 1.36 ± 0.13
LDL-C (ApoE−/− mice [5]; [8]): 22.23 ± 1.6
TC (ApoE−/− mice [5]; [8]): 28.87 ± 2.19
TG (ApoE−/− mice [5]; [8]): 1.35 ± 0.17
HDL-C (ApoE−/− mice [5]; [9]): 1.51 ± 0.06
LDL-C (ApoE−/− mice [5]; [9]): 16.31 ± 0.92
TC (ApoE−/− mice [5]; [9]): 22.38 ± 1.25
TG (ApoE−/− mice [5]; [9]): 2.31 ± 0.18
HDL-C (ApoE−/− mice [5]; [10]): 1.59 ± 0.09
LDL-C (ApoE−/− mice [5]; [10]): 20.24 ± 2
TC (ApoE−/− mice [5]; [10]): 27.29 ± 2.61
TG (ApoE−/− mice [5]; [10]): 2.2 ± 0.13
HDL-C (ApoE−/− mice [5]; [11]): 2.53 ± 0.12
LDL-C (ApoE−/− mice [5]; [11]): 14.32 ± 1.08
TC (ApoE−/− mice [5]; [11]): 19.14 ± 1.34
TG (ApoE−/− mice [5]; [11]): 1.99 ± 0.2
HDL-C (ApoE−/− mice [5]; [12]): 2.5 ± 0.18
LDL-C (ApoE−/− mice [5]; [12]): 13.87 ± 1.51
TC (ApoE−/− mice [5]; [12]): 18.89 ± 2.11
TG (ApoE−/− mice [5]; [12]): 1.51 ± 0.09
SOD (ApoE−/− mice [6]; week 16 (8 weeks dosing)): 0.87 ± 0.09 U/mL
SOD (ApoE−/− mice [6]; week 18 (10 weeks dosing)): 0.99 ± 0.09 U/mL
